Tested on: LuxArray 1.04 E. coli strains (luxCDABE gene fusions)
Experiment: LuxArray 1.04 limonene stress of the reporter array in liquid culture
Assay type: cell-based
Details: for number of gene fusions upregulated by 2 fold or more / upregulation of gene fusion: 80% saturated limonene in LB; for number of gene fusions upregulated by 2 fold or more: LuxArray 1.04 (849 fusions)
Method: Microplates from −80° C. containing the LuxArray 1.04 E. coli strains were thawed and used to inoculate 100 μl LB medium supplemented with 100 μg/ml ampicillin in Costar#3595 flat bottomed 96-well microplates. Following overnight growth at 37° C., the plates were visually examined and any wells with little or no turbidity were recorded. Then these cultures were diluted by transfer of 15 μl to 135 μl LB medium in Costar #3595, flat bottom 96-well microplates and were moderately swirl shaken on an IKA Schuttler MTS 4 shaker at setting 400 for two hrs at 37° C. in a humidified box. Twenty μl of each these actively growing cultures were transferred to the corresponding well in sets of three microplates, one containing 80 μl of LB medium, another containing 80 μl of LB medium saturated with limonene at room temperature, and the third containing 40 μl of LB medium saturated with limonene and 40 μl of LB medium. An initial (zero time) reading was taken using an MLX microplate luminometer (Dynex) pre-warmed to 37° C. Then the plates were placed at 37° C. without shaking. Additional bioluminescent measurements were taken at 45, 90, and 135 minutes. To limit the number of microplates handled each day, LuxArray 1.04 microplates 1 to 5, microplates 6 to 10, microplates 11 to 15, and microplates […] were used on each of four different days.
The data were normalized to correct for growth-inhibition caused by limonene on the basis of each individual day that data was collected. The bioluminescence (RLU) of each individual culture for each day of experimentation under each of the three conditions, were added to determine the daily array total RLU. These were used to find a daily normalization factor (DNF) as follows:
DNF=Daily total array signal(time zero, LB control)/Daily total array signal(time x, condition y)
Each measurement from the corresponding day, time point, and condition was multiplied by DNF to yield a normalized signal. The data from wells that were scored to have little or no growth were not used in further analysis. The normalized data were analyzed with GeneSpring (Silicon Genetics) software, which averaged the signal from each of the duplicate cultures for each reporter gene fusion.
Thus, patterns of gene expression from the 80% saturated limonene in LB medium were further examined. […] These lists were examined and gene fusions with very low normalized RLU values (<0.012 RLU) at all conditions were eliminated. […] The designation of “>2X” is given for upregulation while “*” is listed if the expression was less than 2 fold increased. At 45 minutes, the expression of fourteen gene fusions was increased; none of these was increased 3 fold or higher. At 90 minutes, 37 gene fusions were induced; these included all but one of the gene fusions observed at 45 minutes. […] These were fusions of the luxCDABE reporter to the promoter regions of uhpT (3.8×), nirB (3.7×) and narK (3.6×). At 135 minutes, 39 gene fusions were induced, which included 13 fusions not observed at 45 or 90 minutes.

C=C(C)[C@H]1CC=C(C)CC1 [limonene]
upregulation of gene expression overall (40% saturated limonene in LB medium): little to no upregulation of gene expression | number of gene fusions upregulated by 2 fold or more (45 minutes): fourteen | number of gene fusions upregulated by 2 fold or more (90 minutes): 37 gene fusions | number of gene fusions upregulated by 2 fold or more (135 minutes): 39 gene fusions | upregulation of gene fusion (b0005 fusion, 45 minutes): * (“*” is listed if the expression was less than 2 fold increased) | upregulation of gene fusion (b0005 fusion, 90 minutes): * (“*” is listed if the expression was less than 2 fold increased) | upregulation of gene fusion (b0005 fusion, 135 minutes): >2X (The designation of “>2X” is given for upregulation) | upregulation of gene fusion (b0123 (yacK) fusion, 45 minutes): * (“*” is listed if the expression was less than 2 fold increased) | upregulation of gene fusion (b0314 (betT) fusion, 45 minutes): * (“*” is listed if the expression was less than 2 fold increased) | upregulation of gene fusion (b0314 (betT) fusion, 90 minutes): >2X (The designation of “>2X” is given for upregulation) | upregulation of gene fusion (b0314 (betT) fusion, 135 minutes): >2X (The designation of “>2X” is given for upregulation) | upregulation of gene fusion (b0417 fusion, 45 minutes): * (“*” is listed if the expression was less than 2 fold increased) | upregulation of gene fusion (b0417 fusion, 90 minutes): >2X (The designation of “>2X” is given for upregulation) | upregulation of gene fusion (b0417 fusion, 135 minutes): >2X (The designation of “>2X” is given for upregulation) | upregulation of gene fusion (b0422 (xseB) fusion, 45 minutes): * (“*” is listed if the expression was less than 2 fold increased) | upregulation of gene fusion (b0422 (xseB) fusion, 90 minutes): >2X (The designation of “>2X” is given for upregulation) | upregulation of gene fusion (b0422 (xseB) fusion, 135 minutes): * (“*” is listed if the expression was less than 2 fold increased) | upregulation of gene fusion (b0572 fusion, 45 minutes): * (“*” is listed if the expression was less than 2 fold increased) | upregulation of gene fusion (b0572 fusion, 90 minutes): >2X (The designation of “>2X” is given for upregulation) | upregulation of gene fusion (b0572 fusion, 135 minutes): >2X (The designation of “>2X” is given for upregulation) | upregulation of gene fusion (b0593 (entC) fusion, 45 minutes): * (“*” is listed if the expression was less than 2 fold increased) | upregulation of gene fusion (b0593 (entC) fusion, 90 minutes): >2X (The designation of “>2X” is given for upregulation) | upregulation of gene fusion (b0593 (entC) fusion, 135 minutes): >2X (The designation of “>2X” is given for upregulation) | upregulation of gene fusion (b0839 (dacC) fusion, 45 minutes): * (“*” is listed if the expression was less than 2 fold increased) | upregulation of gene fusion (b0839 (dacC) fusion, 90 minutes): >2X (The designation of “>2X” is given for upregulation) | upregulation of gene fusion (b0839 (dacC) fusion, 135 minutes): >2X (The designation of “>2X” is given for upregulation) | upregulation of gene fusion (b1188 (ycgB) fusion, 45 minutes): * (“*” is listed if the expression was less than 2 fold increased) | upregulation of gene fusion (b1188 (ycgB) fusion, 90 minutes): >2X (The designation of “>2X” is given for upregulation) | upregulation of gene fusion (b1188 (ycgB) fusion, 135 minutes): * (“*” is listed if the expression was less than 2 fold increased) | upregulation of gene fusion (b1223 (narK) fusion, 45 minutes): * (“*” is listed if the expression was less than 2 fold increased) | upregulation of gene fusion (b1223 (narK) fusion, 90 minutes): >2X (The designation of “>2X” is given for upregulation) | upregulation of gene fusion (b1223 (narK) fusion, 135 minutes): >2X (The designation of “>2X” is given for upregulation) | upregulation of gene fusion (b1676 (pykF) fusion, 45 minutes): >2X (The designation of “>2X” is given for upregulation) | upregulation of gene fusion (b1676 (pykF) fusion, 90 minutes): >2X (The designation of “>2X” is given for upregulation) | upregulation of gene fusion (b1676 (pykF) fusion, 135 minutes): >2X (The designation of “>2X” is given for upregulation) | upregulation of gene fusion (b1872 (bisZ) fusion, 45 minutes): * (“*” is listed if the expression was less than 2 fold increased) | upregulation of gene fusion (b1872 (bisZ) fusion, 90 minutes): >2X (The designation of “>2X” is given for upregulation) | upregulation of gene fusion (b1872 (bisZ) fusion, 135 minutes): >2X (The designation of “>2X” is given for upregulation) | upregulation of gene fusion (b1993 (cobU) fusion, 45 minutes): >2X (The designation of “>2X” is given for upregulation) | upregulation of gene fusion (b1993 (cobU) fusion, 90 minutes): >2X (The designation of “>2X” is given for upregulation) | upregulation of gene fusion (b1993 (cobU) fusion, 135 minutes): >2X (The designation of “>2X” is given for upregulation) | upregulation of gene fusion (b2081 fusion, 45 minutes): >2X (The designation of “>2X” is given for upregulation) | upregulation of gene fusion (b2081 fusion, 90 minutes): >2X (The designation of “>2X” is given for upregulation) | upregulation of gene fusion (b2081 fusion, 135 minutes): * (“*” is listed if the expression was less than 2 fold increased) | upregulation of gene fusion (b2237 (inaA) fusion, 45 minutes): * (“*” is listed if the expression was less than 2 fold increased) | upregulation of gene fusion (b2237 (inaA) fusion, 90 minutes): >2X (The designation of “>2X” is given for upregulation) | upregulation of gene fusion (b2237 (inaA) fusion, 135 minutes): >2X (The designation of “>2X” is given for upregulation) | upregulation of gene fusion (b2322 fusion, 45 minutes): * (“*” is listed if the expression was less than 2 fold increased) | upregulation of gene fusion (b2322 fusion, 90 minutes): >2X (The designation of “>2X” is given for upregulation) | upregulation of gene fusion (b2322 fusion, 135 minutes): >2X (The designation of “>2X” is given for upregulation) | upregulation of gene fusion (b2367 (emrY) fusion, 45 minutes): * (“*” is listed if the expression was less than 2 fold increased) | upregulation of gene fusion (b2367 (emrY) fusion, 90 minutes): >2X (The designation of “>2X” is given for upregulation) | upregulation of gene fusion (b2367 (emrY) fusion, 135 minutes): * (“*” is listed if the expression was less than 2 fold increased) | upregulation of gene fusion (b2451 fusion, 45 minutes): * (“*” is listed if the expression was less than 2 fold increased) | upregulation of gene fusion (b2451 fusion, 90 minutes): >2X (The designation of “>2X” is given for upregulation)
